# Data published in US7528253B2, “Compounds having β2 adrenergic receptor agonist and muscarinic receptor antagonist activity” (Theravance, Inc., priority 2004, dated 2009).
# Columns and labels:
# [1] = target: T1, human β2 adrenergic receptor (Homo sapiens, UniProt P07550); test: Radioligand binding assay for human β2 adrenergic receptor (Assay Test Procedure A); settings: displacement of [3H]-dihydroalprenolol, CHO membranes
# T1 construct: expressed in transfected cells; membranes prepared
# Experimental: Chinese hamster ovarian (CHO) cell lines stably expressing cloned human β1, β2 or β3 adrenergic receptors, respectively, were grown to near confluency in Hams F-12 media with 10% FBS in the presence of 500 μg/mL Geneticin. The cell monolayer was lifted with 2 mM EDTA in PBS. Cells were pelleted by centrifugation at 1,000 rpm, and cell pellets were either stored frozen at −80° C. or membranes were prepared immediately for use. For preparation of β1 and β2 receptor expressing membranes, cell pellets were re-suspended in lysis buffer (10 mM HEPES/HCl, 10 mM EDTA, pH 7.4 at 4° C.) and homogenized using a tight-fitting Dounce glass homogenizer (30 strokes) on ice. […] The protein concentration of the membrane suspension was determined by the methods described in Lowry et al., 1951, Journal of Biological Chemistry, 193, 265; and Bradford, Analytical Biochemistry, 1976, 72, 248-54. […]
# Binding assays were performed in 96-well microtiter plates in a total assay volume of 100 μL with 10-15 μg of membrane protein containing the human β1, β2 or β3 adrenergic receptors in assay buffer (75 mM Tris/HCl pH 7.4 at 25° C., 12.5 mM MgCl2, 1 mM EDTA, 0.2% BSA). […] Non-specific binding was determined in the presence of 10 μM propranolol. […] Filter plates were washed three times with filtration buffer (75 mM Tris/HCl pH 7.4 at 4° C., 12.5 mM MgCl2, 1 mM EDTA) to remove unbound radioactivity. […]
# [2] = target: T2, M3 muscarinic receptor (hM3) (Homo sapiens, UniProt P20309); test: Radioligand binding assay for muscarinic receptors (Assay Test Procedure B); settings: displacement of [3H]-NMS, CHO cell membranes
# T2 construct: expressed in transfected cells; membranes prepared
# Experimental: CHO cell lines stably expressing cloned human hM1, hM2, hM3 and hM4 muscarinic receptor subtypes, respectively, were grown to near confluency in HAM's F-12 media supplemented with 10% FBS and 250 μg/mL Geneticin. The cells were grown in a 5% CO2, 37° C. incubator and lifted with 2 mM EDTA in dPBS. Cells were collected by 5 minute centrifugation at 650× g, and cell pellets were either stored frozen at −80° C. or membranes were prepared immediately for use. For membrane preparation, cell pellets were resuspended in lysis buffer and homogenized with a Polytron PT-2100 tissue disrupter (Kinematica AG; 20 seconds×2 bursts). Crude membranes were centrifuged at 40,000× g for 15 minutes at 4° C. […] The protein concentration of the membrane suspension was determined by the method described in Lowry et al., 1951, Journal of Biochemistry, 193, 265. […]
# Radioligand binding assays for cloned human muscarinic receptors were performed in 96-well microtiter plates in a total assay volume of 100 μL. […] Filter plates were rinsed three times with wash buffer (10 mM HEPES) to remove unbound radioactivity. […] The plates were then counted in a PerkinElmer Topcount liquid scintillation counter (PerkinElmer Inc., Wellesley, Mass.). Binding data were analyzed by nonlinear regression analysis with the GraphPad Prism Software package (GraphPad Software, Inc., San Diego, Calif.) using the one-site competition model. […]
# T2 sequence (P20309 whole entry): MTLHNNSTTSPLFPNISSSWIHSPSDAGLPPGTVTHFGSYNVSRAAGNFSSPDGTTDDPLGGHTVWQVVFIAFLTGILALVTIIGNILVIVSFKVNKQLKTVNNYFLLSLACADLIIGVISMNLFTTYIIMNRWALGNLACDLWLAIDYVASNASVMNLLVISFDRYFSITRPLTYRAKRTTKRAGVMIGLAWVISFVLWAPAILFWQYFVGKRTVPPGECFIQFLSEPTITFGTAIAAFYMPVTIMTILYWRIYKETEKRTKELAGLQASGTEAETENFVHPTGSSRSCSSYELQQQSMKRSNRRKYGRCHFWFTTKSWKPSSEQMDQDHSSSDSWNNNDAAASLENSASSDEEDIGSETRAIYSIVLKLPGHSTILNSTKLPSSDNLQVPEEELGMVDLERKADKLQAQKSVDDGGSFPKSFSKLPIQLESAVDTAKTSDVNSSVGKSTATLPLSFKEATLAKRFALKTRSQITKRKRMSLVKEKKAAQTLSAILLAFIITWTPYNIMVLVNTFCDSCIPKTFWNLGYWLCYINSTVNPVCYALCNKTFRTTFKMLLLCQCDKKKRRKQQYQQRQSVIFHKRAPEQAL
# T1 sequence (P07550 whole entry): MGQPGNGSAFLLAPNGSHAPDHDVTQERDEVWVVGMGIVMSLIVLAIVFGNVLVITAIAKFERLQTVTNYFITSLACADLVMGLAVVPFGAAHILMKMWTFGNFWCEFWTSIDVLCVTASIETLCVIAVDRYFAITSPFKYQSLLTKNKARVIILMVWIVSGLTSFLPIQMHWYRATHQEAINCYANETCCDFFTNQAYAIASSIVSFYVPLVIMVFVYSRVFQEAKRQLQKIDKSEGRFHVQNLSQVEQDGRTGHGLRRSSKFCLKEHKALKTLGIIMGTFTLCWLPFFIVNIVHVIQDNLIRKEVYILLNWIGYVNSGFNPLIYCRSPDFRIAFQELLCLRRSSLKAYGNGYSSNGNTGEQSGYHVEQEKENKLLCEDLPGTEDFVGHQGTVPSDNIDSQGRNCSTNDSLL
compound,measurement,setting,value
"CN(CCCCCCCCCNC[C@H](O)c1ccc(O)c2[nH]c(=O)ccc12)CCC(C)(C)OC(=O)Nc1ccccc1-c1ccccc1 [Example 1, Biphenyl-2-ylcarbamic Acid 3-({9-[(R)-2-Hydroxy-2-(8-hydroxy-2-oxo-1,2-dihydro-quinolin-5-yl)ethylamino]nonyl}methylamino)-1,1-dimethylpropyl Ester]",Ki,[1],< 300 nM
same,Ki,[2],< 300 nM
